Data from patent US9481648B2, “Kinase inhibitors” (Respivert Limited, priority 2013, dated 2016).

Tests used:
[1] = molecular target: p38 MAPKα (MAPK14) (Homo sapiens (Human), UniProt Q16539); experiment: p38 MAPKα enzyme inhibition (FRET, Z-LYTE; Method 2); format: biochemical
[2] = molecular target: c-Src (Homo sapiens (Human), UniProt P12931); experiment: c-Src enzyme inhibition (FRET, Z-LYTE); format: biochemical
Method in brief: (§1)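 Syk or c-Src enzyme (3000 or 2000 ng/mL solutions) was preincubated 2 h at RT with compound solutions at 1, 0.1, 0.01 or 0.001 µg/mL. Z-LYTE FRET peptide (8 µM solution) and ATP (800 µM solution for c-Src, 60 µM for Syk) were then added for 1 h, followed by protease development for 1 h. Phosphorylation was read as the coumarin/fluorescein emission ratio.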

[3] = molecular target: Syk (Homo sapiens (Human), UniProt P43405); experiment: Syk enzyme inhibition (FRET, Z-LYTE); format: biochemical
Method in brief: as §1

[4] = molecular target: GSK 3α (Homo sapiens (Human), UniProt P49840); experiment: GSK 3α enzyme inhibition (FRET, Z-LYTE; Method 2); format: biochemical; conditions: read-out: IC50 Values for Enzyme Inhibition GSK3α
GSK 3α, sequence (P49840 whole entry): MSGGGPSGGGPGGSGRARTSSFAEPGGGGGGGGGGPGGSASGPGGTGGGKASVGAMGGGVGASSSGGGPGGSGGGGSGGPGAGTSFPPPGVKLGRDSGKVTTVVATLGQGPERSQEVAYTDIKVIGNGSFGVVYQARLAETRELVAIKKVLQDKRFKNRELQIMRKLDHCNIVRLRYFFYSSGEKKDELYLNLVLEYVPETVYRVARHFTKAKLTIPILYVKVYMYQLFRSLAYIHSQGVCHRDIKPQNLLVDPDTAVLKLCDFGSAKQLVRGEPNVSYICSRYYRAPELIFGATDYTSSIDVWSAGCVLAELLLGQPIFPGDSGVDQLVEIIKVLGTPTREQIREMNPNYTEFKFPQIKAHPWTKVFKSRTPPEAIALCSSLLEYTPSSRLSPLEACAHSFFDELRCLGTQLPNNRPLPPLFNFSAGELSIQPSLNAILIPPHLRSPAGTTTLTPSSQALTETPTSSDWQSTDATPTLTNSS
Method in brief: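 Z-LYTE FRET assay: GSK3-α (500 ng/mL stock) preincubated 105 min at RT with compound at 10, 1, 0.1 or 0.01 μg/mL stock. FRET peptide (8 μM stock) and ATP (40 μM stock) were then added for 1 h, followed by protease development for 1 h. Phosphorylation was read as coumarin/fluorescein emission ratio.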

[5] = test system: β-catenin in d-U937 cells; experiment: Accumulation of β catenin in d-U937 cells (assay m); format: cell-based, human
Method in brief: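 U937 cells were differentiated with PMA (100 ng/mL) for 48–72 hr, then treated with compound or vehicle for 18 hr. After formaldehyde fixation, β-catenin was detected with a primary antibody and an HRP secondary using TMB (OD450–655). Signal was normalised to crystal violet cell staining (OD595).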

p38 MAPKα (MAPK14), sequence (Q16539 whole entry): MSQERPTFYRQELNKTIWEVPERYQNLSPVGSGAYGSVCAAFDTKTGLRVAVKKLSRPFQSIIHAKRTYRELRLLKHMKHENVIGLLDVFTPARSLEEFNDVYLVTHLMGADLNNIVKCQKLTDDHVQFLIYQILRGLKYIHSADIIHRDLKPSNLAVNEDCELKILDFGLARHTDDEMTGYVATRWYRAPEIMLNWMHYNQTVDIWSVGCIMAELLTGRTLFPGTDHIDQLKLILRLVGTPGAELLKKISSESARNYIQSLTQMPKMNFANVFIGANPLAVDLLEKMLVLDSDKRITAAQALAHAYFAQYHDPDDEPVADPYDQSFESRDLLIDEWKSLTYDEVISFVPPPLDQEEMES
c-Src, sequence (P12931 whole entry, looked up): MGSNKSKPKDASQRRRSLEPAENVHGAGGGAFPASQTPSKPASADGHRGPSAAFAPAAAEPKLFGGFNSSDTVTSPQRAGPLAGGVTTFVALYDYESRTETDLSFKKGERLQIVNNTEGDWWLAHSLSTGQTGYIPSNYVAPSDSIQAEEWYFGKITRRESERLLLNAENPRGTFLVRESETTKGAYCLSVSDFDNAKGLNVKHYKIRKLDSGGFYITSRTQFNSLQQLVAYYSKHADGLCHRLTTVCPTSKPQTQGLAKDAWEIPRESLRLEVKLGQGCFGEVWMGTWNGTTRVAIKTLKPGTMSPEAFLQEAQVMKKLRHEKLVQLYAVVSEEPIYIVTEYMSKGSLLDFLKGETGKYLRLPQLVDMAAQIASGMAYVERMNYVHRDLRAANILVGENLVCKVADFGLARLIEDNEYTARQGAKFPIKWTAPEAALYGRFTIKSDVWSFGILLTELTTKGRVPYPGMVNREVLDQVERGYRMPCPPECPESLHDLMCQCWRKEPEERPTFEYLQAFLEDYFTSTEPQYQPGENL

| SMILES | IC50 [1] [nM] | IC50 [2] [nM] | IC50 [3] [nM] | IC50 [4] [nM] | % β-catenin induction ([5]; test compound 1 μg/mL) [%] | % β-catenin induction ([5]; test compound 5 μg/mL) [%] | % β-catenin induction ([5]; test compound 10 μg/mL) [%] |
| --- | --- | --- | --- | --- | --- | --- | --- |
| COCCOCCOCCOc1cc(Nc2nccc(Oc3ccc(NC(=O)Nc4cc(NS(C)(=O)=O)cc(C(C)(C)C)c4)c4ccccc34)n2)cc(OC)c1 [Example 24, N-(3-(tert-Butyl)-5-(3-(4-((2-((3-methoxy-5-(2-(2-(2-methoxyethoxy)ethoxy)ethoxy)-phenyl)amino)pyrimidin-4-yl)oxy)naphthalen-1-yl)ureido)phenyl)methanesulfonamide] | 30 | 14 | 549 | 680 | −3 | 27 | 25 |
| COCCOCCOCCOc1cc(Nc2nccc(Oc3ccc(NC(=O)Nc4cc(C(C)(C)C)cc(C(=O)NCCN(C)C)c4OC)c4ccccc34)n2)cc(OC)c1 [Example 46, 5-(tert-Butyl)-N-(2-(dimethylamino)ethyl)-2-methoxy-3-(3-(4-((2-((3-methoxy-5-(2-(2-(2-methoxyethoxy)ethoxy)ethoxyl)phenyl)amino)pyrimidin-4-yl)oxy)naphthalen-1-yl)ureido)-benzamide] | 110 | 15 | 20 | 636 | −2 | 2 | −29 |
| COCCOCCOCCOCCOCCOCCOCCOc1cc(Nc2nccc(Oc3ccc(NC(=O)Nc4cc(C(C)(C)C)cc(NS(C)(=O)=O)c4OC)c4ccccc34)n2)cc(OC)c1 [Example 14, N-(3-(3-(4-((2-((3-(2,5,8,11,14,17,20-Heotaoxadocosan-22-yloxy)-5-methoxyphenyl)amino)-pyrimidin-4-yl)oxy)naphthalen-1-yl)ureido)-5-(tert-butyl)-2-methoxyphenyl)-methanesulfonamide] | 49 | 11 | 106 | 1010 | 0 | 16 | 14 |
| COCCOCCOCCNC(=O)c1cc(Nc2nccc(Oc3ccc(NC(=O)Nc4cc(C(C)(C)C)cc(NS(C)(=O)=O)c4OC)c4ccccc34)n2)cc(OC)c1 [Example 7] | 39 | 9 | 554 | 516 | 13 | 29 | 29 |
| COCCOCCOCCOc1cc(Nc2nccc(Oc3ccc(NC(=O)Nc4cc(C(C)(C)C)cc(-c5nnco5)c4OC)c4ccccc34)n2)cc(OC)c1 [Example 59, 1-(5-(tert-Butyl)-2-methoxy-3-(1,3,4-oxadiazol-2-yl)phenyl)-3-(4-((2-((3-methoxy-5-(2-(2-(2-methoxyethoxy)ethoxy)ethoxy)phenyl)amino)pyrimidin-4-yl)oxy)naphthalen-1-yl)urea] | 132 | 28 | 128 | 978 | 14 | 33 | 28 |
| COCCOCCOCCOc1cc(Nc2nccc(Oc3ccc(NC(=O)Nc4cc(C(C)(C)C)cc(S(N)(=O)=O)c4OC)c4ccccc34)n2)cc(OC)c1 [Example 55, 5-(tert-Butyl)-2-methoxy-3-(3-(4-((2-((3-methoxy-5-(2-(2-(2-methoxyethoxy)ethoxy)-ethoxy)phenyl)amino)pyrimidin-4-yl)oxy)naphthalen-1-yl)ureido)benzenesulfonamide] | 157 | 22 | 131 | 2360 | 11 | 23 | 45 |

Continued, in another order:

| IC50 [1] [nM] | IC50 [2] [nM] | IC50 [3] [nM] | IC50 [4] [nM] | SMILES | % β-catenin induction ([5]; test compound 1 μg/mL) [%] | % β-catenin induction ([5]; test compound 5 μg/mL) [%] | % β-catenin induction ([5]; test compound 10 μg/mL) [%] |
| --- | --- | --- | --- | --- | --- | --- | --- |
| 92 | 15 | 169 | 1600 | COc1cc(Nc2cc(Oc3ccc(NC(=O)Nc4cc(C(C)(C)C)cc(C(N)=O)c4OC)c4ccccc34)ccn2)cc(C(=O)NCCN2CCOCC2)c1 [Example 47, 3-((4-((4-(3-(5-(tert-Butyl)-3-carbamoyl-2-methoxyphenyl)ureido)naphthalen-1-yl)oxy)pyridin-2-yl)amino)-5-methoxy-N-(2-morpholinoethyl)benzamide] | −5 | 4 | 8 |
| 286 | 48 | 706 | 1120 | C#Cc1cc(Nc2nccc(Oc3ccc(NC(=O)Nc4cc(C(C)(C)C)cc(NS(C)(=O)=O)c4OC)c4ccccc34)n2)cc(C(=O)N[C@@H](C)CN2CCOCC2)c1 [Example 57, (S)-3-((4-((4-(3-(5-(tert-butyl)-2-methoxy-3-(methylsulfonamido)phenyl)ureido)-naphthalen-1-yl)oxy)pyrimidin-2-yl)amino)-5-ethynyl-N-(1-morpholinopropan-2-yl)benzamide] | 4 | 6 | 11 |
| 34 | 11 | 421 | 541 | COc1cc(Nc2nccc(Oc3ccc(NC(=O)Nc4cc(C(C)(C)C)cc(NS(C)(=O)=O)c4OC)c4ccccc34)n2)cc(C(=O)NCCN2CCOCC2)c1 [Example 6, 3-((4-((4-(3-(5(tert-Butyl)-2-methoxy-3-(methylsulfonamido)phenyl)ureido)naphthaen-1-yl)oxy)pyrimidin-2-yl)amino)-5-methox-N-(2-morpholinoethyl)benzamide] | 7 | 20 | 11 |
| 246 | 48 | 802 | 9150 | COCCOCCOCCOc1cc(Nc2nccc(Oc3ccc(NC(=O)Nc4cc(C(C)(C)C)cc(NS(=O)(=O)N5CCOCC5)c4OC)c4ccccc34)n2)cc(OC)c1 [83(b), N-(5-(tert-butyl)-2-methoxy-3-(3-(4-((2-((3-methoxy-5-(2-(2-(2-methoxyethoxy)ethoxy)-ethoxy)phenyl)amino)pyrimidin-4-yl)oxy)naphthalen-1-yl)ureido)phenyl)morpholine-4-sulfonamide] | −6 | −9 | −6 |
| 124 | 21 | 193 | 12200 | COCCOCCOCCOc1cc(Nc2cc(Oc3ccc(NC(=O)Nc4cc(C(C)(C)C)cc(NS(C)(=O)=O)c4OC)c4ccccc34)ccn2)cc(OC)c1 [Example 11, N-(5-(tert-Butyl)-2-methoxy-3-(3-(4-((2-((3-methoxy-5-(2-(2-(2-methoxyethoxy)ethoxy)-ethoxy)phenyl)amino)pyridin-4-yl)oxy)naphthalen-1-yl)ureido)phenyl)-methanesulfonamide] | −8 | −5 | −2 |
| 77 | 36 | 125 | 4470 | COc1cc(Nc2cc(Oc3ccc(NC(=O)Nc4cc(C(C)(C)C)cc(NS(C)(=O)=O)c4OC)c4ccccc34)ccn2)cc(OCCOCCOCCO)c1 [84(e), 1-[5-tert-Butyl-3-(methanesulfonamido)-2-methoxy-phenyl]-3-[4-[[2-[3-[2-[2-(2-hydroxyethoxy)ethoxy]ethoxy]-5-methoxy-anilino]-4-pyridyl]oxy]-1-naphthyl]urea] | −1 | 5 | 7 |
| 326 | 85 | 1290 | 7400 | C#Cc1cc(Nc2cc(Oc3ccc(NC(=O)Nc4cc(NS(C)(=O)=O)cc(C(C)(C)C)c4)c4ccccc34)ccn2)cc(C(=O)NCCN2CCOCC2)c1 [Example 65, 3-((4-((4-(3-(3-(tert-Butyl)-5-(methylsulfonamido)phenyl)ureido)naphthalen-1-yl)oxy)-pyridin-2-yl)amino)-5-ethynyl-N-(2-morpholinoethyl)benzamide] | 5 | 2 | 6 |
| 52 | 10 | 76 | 3120 | COc1cc(Nc2nccc(Oc3ccc(NC(=O)Nc4cc(C(C)(C)C)cc(NS(C)(=O)=O)c4OC)c4ccccc34)n2)cc(OCCOCCOCCN2CCOCC2)c1 [Example 18, N-(5-(tert-Butyl)-2-methoxy-3-(3-(4-((2-((3-methoxy-5-(2-(2-(2-mormholinoethoxy)ethoxy)-ethoxy)phenyl)amino)pyrimidin-4-yl)oxy)naphthalen-1-yl)ureido)phenyl)methanesulfonamide] | 1 | 9 | 17 |
| 258 | 56 | 1220 | 8360 | C#Cc1cc(Nc2cc(Oc3ccc(NC(=O)Nc4cc(C(C)(C)C)cc(NS(C)(=O)=O)c4OC)c4ccccc34)ccn2)cc(C(=O)NCCN2CCOCC2)c1 [Example 49, 3-((4-((4-(3-(5-(tert-Butyl)-2-methoxy-3-methylsulfonamido)phenyl)ureido)naphthalen-1-yl)oxy)pyridin-2-yl)amino-5-ethynyl-N-(2-morpholinoethyl)benzamide] | −1 | −2 | −5 |
